This passage reports IC50 results from patent US9839623B2, “Tricyclic compounds and methods of making and using same” (Zafgen, Inc., priority 2010, dated 2017).

By IC50 is commonly meant the concentration that gives 50% inhibition.

The target in this assay is T1, recombinant human MetAP2 (Homo sapiens, UniProt P50579).
T1 construct: made in house; host or cells: Sf9 insect cells
T1 sequence (P50579 whole entry): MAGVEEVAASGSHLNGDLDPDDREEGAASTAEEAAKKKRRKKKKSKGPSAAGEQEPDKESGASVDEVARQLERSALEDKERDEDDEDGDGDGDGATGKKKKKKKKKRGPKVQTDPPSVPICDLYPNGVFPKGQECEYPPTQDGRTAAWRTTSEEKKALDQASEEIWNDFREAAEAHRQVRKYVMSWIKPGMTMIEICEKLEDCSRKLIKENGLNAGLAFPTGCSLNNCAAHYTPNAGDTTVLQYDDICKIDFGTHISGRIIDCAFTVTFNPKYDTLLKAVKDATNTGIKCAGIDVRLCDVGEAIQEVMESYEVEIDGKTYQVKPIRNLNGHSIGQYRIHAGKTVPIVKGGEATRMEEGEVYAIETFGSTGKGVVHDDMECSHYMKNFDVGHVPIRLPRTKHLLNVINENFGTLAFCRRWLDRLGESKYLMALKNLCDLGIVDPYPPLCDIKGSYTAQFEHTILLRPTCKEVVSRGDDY
The assay can be described thus: Inhibition of recombinant human MetAP2 activity (MAS substrate, amino acid oxidase/Amplex red fluorescence). Particulars: manganese enzyme, 30 minutes at 25° C., pH 7.5, 0.75 mM MAS substrate, 1% DMSO. It counts as biochemical. Here is the method:
Compounds are tested for their capacity to inhibit recombinant human MetAP2 activity using the following assay.
Human recombinant MetAP2 expressed in Sf9 cells followed by affinity purification and EDTA treatment to remove endogenous active site cation was dialysed against MnCl2 to produce the manganese enzyme used in the assay. The assay was carried out for 30 minutes at 25° C. in 50 mM HEPES buffer containing 100 mM NaCl, pH 7.5 the presence of 0.75 mM Methionine-Alanine-Serine (MAS) substrate and 50 μg/mL amino acid oxidase using a dilution of purified MetAP2 giving >3-fold signal:noise. Cleavage of the substrate by MetAP2 and oxidation of free methionine by amino acid oxidase was detected and quantified using fluorescence generated by Amplex red (10-acetyl-3,7-dihydroxyphenoxazine) in combination with horseradish peroxidase which detects H2O2 released during the oxidation step. The fluorescent signal was detected using a multiwell fluorimeter. Compounds were diluted in DMSO prior to addition to assay buffer, the final DMSO concentration in the assay being 1%.
The IC50 is defined as the concentration at which a given compound achieves 50% inhibition of control. IC50 values are calculated using the XLfit software package (version 2.0.5).
As for `CCNC/C=C\c1cc(F)ccc1S(=O)(=O)Nc1ccc2c(c1C(=O)O)OCc1occc1-2` [Example 10, 7-[2-((Z)-3-Ethylaminoprop-1-enyl)-4-fluorobenzenesulfonylamino]-4H-furo[2,3-c]chromene-6-carboxylic Acid], the IC50 is less than 100 nM.
As to `CCN(CC)C/C=C\c1cc(F)ccc1S(=O)(=O)Nc1ccc2c(c1C(=O)O)OCc1occc1-2` [Example 1, 7-[2-((Z)-3-Diethylaminoprop-1-enyl)-4-fluorobenzenesulfonylamino]-4H-furo[2,3-c]chromene-6-carboxylic Acid], the IC50 is less than 100 nM.
With `CCN(CC)C/C=C\c1cc(F)ccc1S(=O)(=O)Nc1ccc2c([nH]c(=O)c3occc32)c1C(=O)O` [Example 22, 7-[2-((Z)-3-Diethylaminoprop-1-enyl)-4-fluorobenzenesulfonylamino]-4-oxo-4,5-dihydrofuro[2,3-c]quinoline-6-carboxylic Acid] the figure was less than 100 nM; with `O=C(O)c1c(CS(=O)(=O)c2ccccc2)ccc2c1OCCc1occc1-2` [Example 3, 8-(Benzenesulfonylmethyl)-4,5-dihydro-3,6-dioxabenzo[e]azulene-7-carboxylic Acid], 100 to 1000 nM.
With `CCN(CC)C/C=C\c1cc(F)ccc1S(=O)(=O)Cc1ccc2c(c1C(=O)O)OC(C)c1occc1-2` (racemic) [Example 15] the figure was less than 100 nM.
With `CCN(CC)C/C=C\c1cc(F)ccc1S(=O)(=O)Nc1ccc2c(c1C(=O)O)OCc1occ(F)c1-2` [Example 25, 7-[2-((Z)-3-Diethylaminoprop-1-enyl)-4-fluorobenzenesulfonylamino]-1-fluoro-4H-furo[2,3-c]chromene-6-carboxylic Acid] the figure was less than 100 nM; with `C[C@H]1Oc2c(ccc(CS(=O)(=O)c3ccccc3)c2C(=O)O)-c2ccoc21` (stereo in doubt) [Example 6, 7-(Benzenesulfonylmethyl)-4-methyl-4H-furo[2,3-c]chromene-6-carboxylic Acid], less than 100 nM; with `CCN(CC)C/C=C\c1cc(F)ccc1S(=O)(=O)Nc1ccc2c(c1C(=O)O)OCCc1occc1-2` [Example 7, 8-[2-((Z)-3-Diethylaminoprop-1-enyl)-4-fluorobenzenesulfonylamino]-4,5-dihydro-3,6-dioxabenzo[e]azulene-7-carboxylic Acid], less than 100 nM.
On to `O=C(O)c1c(NS(=O)(=O)c2ccc(F)cc2/C=C\CN2CCC2)ccc2c1OCc1occc1-2` [Example 23, 7-{2-[(Z)-3-(Azetidin-1-yl)prop-1-enyl]-4-fluorobenzenesulfonyl-amino}-4H-furo[2,3-c]chromene-6-carboxylic Acid], for which the IC50 was less than 100 nM.
With `O=C(O)c1c(NS(=O)(=O)c2ccc(F)cc2/C=C\CN2CC(O)C2)ccc2c1OCc1occc1-2` [Example 24, 7-{4-Fluoro-2-[(Z)-3-(3-hydroxyazetidin-1-yl)-prop-1-enyl]-benzenesulfonylamino}-4H-furo[2,3-c]chromene-6-carboxylic Acid] the figure was less than 100 nM.
Consider `O=C(O)c1c(CS(=O)(=O)c2ccccc2)ccc2c1OCc1occc1-2` [Example 2, 7-(Benzenesulfonylmethyl)-4H-furo[2,3-c]chromene-6-carboxylic Acid], for which the IC50 was less than 100 nM.
In the case of `O=C(O)c1c(CS(=O)(=O)c2ccccc2)ccc2c1oc(=O)c1occc12` [Example 5, 7-(Benzenesulfonylmethyl)-4-oxo-4H-furo[2,3-c]chromene-6-carboxylic Acid], the IC50 fell in the range of 100 to 1000 nM.
Regarding `O=C(O)c1c(NS(=O)(=O)c2ccc(F)cc2/C=C\CN2CCOCC2)ccc2c1OCc1occc1-2` [Example 12, 7-{4-Fluoro-2-[(Z)-3-(morpholin-4-yl)prop-1-enyl]benzenesulfonylamino}-4H-furo[2,3-c]chromene-6-carboxylic Acid], the IC50 was less than 100 nM.
With `CCN(CC)C/C=C\c1cc(F)ccc1S(=O)(=O)Nc1ccc2c(ncc3occc32)c1C(=O)O` [Example 8, 7-[2-((Z)-3-Diethylaminoprop-1-enyl)-4-fluorobenzenesulfonylamino]-furo[2,3-c]quinoline-6-carboxylic Acid] the figure was less than 100 nM; with `O=C(O)c1c(CS(=O)(=O)c2ccccc2)ccc2c1ncc1occc12` [Example 4, 7-(Benzenesulfonylmethyl)-furo[2,3-c]quinoline-6-carboxylic Acid], 100 to 1000 nM; with `O=C(O)c1c(NS(=O)(=O)c2ccc(F)cc2/C=C\CN2CCCC2)ccc2c1OCc1occc1-2` [Example 13, 7-{4-Fluoro-2-[(Z)-3-(pyrrolidin-1-yl)prop-1-enyl]benzenesulfonylamino}-4H-furo[2,3-c]chromene-6-carboxylic Acid], less than 100 nM.
With `CCN(CC)CCCc1cc(F)ccc1S(=O)(=O)Nc1ccc2c(c1C(=O)O)OCCc1occc1-2` [Example 11, 8-[2-(3-Diethylaminopropyl)-4-fluorobenzenesulfonylamino]-4,5-dihydro-3,6-dioxabenzo[e]azulene-7-carboxylic Acid] the figure was less than 100 nM; with `CCN(CC)C/C=C\c1cc(F)ccc1S(=O)(=O)Cc1ccc2c(c1C(=O)O)OC(C)c1occc1-2` (single isomer, unassigned) [Example 18B, 7-[2-((Z)-3-diethylaminoprop-1-enyl)-4-fluorobenzenesulfonylmethyl]-4-methyl-4H-furo[2,3-c]chromene-6-carboxylic Acid], 100 to 1000 nM.
With `CCN(CC)C/C=C\c1cc(F)ccc1S(=O)(=O)Nc1ccc2c(c1C(=O)O)OCc1cnsc1-2` [Example 17, 7-[2-((Z)-3-Diethylaminoprop-1-enyl)-4-fluorobenzenesulfonylamino]-4H-chromeno[3,4-d]isothiazole-6-carboxylic Acid] the figure was less than 100 nM; with `CCN(CC)C/C=C\c1cc(F)ccc1S(=O)(=O)Nc1ccc2c(oc(=O)c3occc32)c1C(=O)O` [Example 14], less than 100 nM.
As for `CCN(CC)C/C=C\c1cc(F)ccc1S(=O)(=O)Cc1ccc2c(c1C(=O)O)OC(C)c1occc1-2` (single isomer, unassigned) [Example 18A, 7-[2-((Z)-3-diethylaminoprop-1-enyl)-4-fluorobenzenesulfonylmethyl]-4-methyl-4H-furo[2,3-c]chromene-6-carboxylic Acid], the IC50 was less than 100 nM.
Take `O=C(O)c1c(NS(=O)(=O)c2ccc(F)cc2/C=C\CN2CC[C@H](O)C2)ccc2c1OCc1occc1-2` [Example 21, 7-{4-Fluoro-2-[(Z)-3-((S)-3-hydroxypyrrolidin-1-yl)-prop-1-enyl]-benzenesulfonylamino}-4H-furo[2,3-c]chromene-6-carboxylic Acid]: the IC50 was less than 100 nM.
With `CCN(CC)C/C=C/c1cc(F)ccc1S(=O)(=O)Nc1ccc2c(c1C(=O)O)OCc1occc1-2` [Example 26, 7-[2-((E)-3-Diethylaminoprop-1-enyl)-4-fluorobenzenesulfonylamino]-4H-furo[2,3-c]chromene-6-carboxylic Acid] the figure was less than 100 nM; with `CCN(CC)C/C=C\c1ccccc1S(=O)(=O)Nc1ccc2c(c1C(=O)O)OCc1occc1-2` [Example 19], less than 100 nM; with `O=C(O)c1c(NS(=O)(=O)c2ccc(F)cc2/C=C\CN2CC[C@@H](O)C2)ccc2c1OCc1occc1-2` [Example 20, 7-{4-Fluoro-2-[(Z)-3-((R)-3-hydroxypyrrolidin-1-yl)-prop-1-enyl]-benzenesulfonylamino}-4H-furo[2,3-c]chromene-6-carboxylic Acid], less than 100 nM.
With `CCN(CC)CCCc1cc(F)ccc1S(=O)(=O)Nc1ccc2c(ncc3occc32)c1C(=O)O` [Example 16, 7-[2-(3-Diethylaminopropyl)-4-fluorobenzenesulfonylamino]-furo[2,3-c]quinoline-6-carboxylic Acid] the figure was less than 100 nM; with `CCN(CC)CCCc1cc(F)ccc1S(=O)(=O)Nc1ccc2c(c1C(=O)O)OCc1occc1-2` [Example 9, 7-[2-(3-Diethylaminopropyl)-4-fluorobenzenesulfonylamino]-4H-furo[2,3-c]chromene-6-carboxylic Acid], less than 100 nM.
